# Source: publication PMC11178787, “Development of a natural product optimization strategy for inhibitors against MraY, a promising antibacterial target” (Nature Communications, 2024)
# Tests used:
# A. baumannii ATCC 19606 = tested on: T1, A. baumannii ATCC 19606; experiment: microbe, parasite or virus in culture; conditions: Acinetobacter baumannii, ATCC19606
# T1 construct: ATCC 19606
# Experimental: (§1) MICs were determined by a microdilution broth method as recommended by the CLSI with MHB-II. For MICs of stable analogues, a 2-fold dilution of each compound was prepared in DMSO at 100-fold of the final concentration. The strains were inoculated with 5 × 10^5 cfu/mL in 96-well plates (each 100 μL/well), and 1 μL of DMSO solutions of the samples were added (contained less than 1% DMSO). The plates were incubated at 37 °C for 18 h and then MICs were determined. MICs of stable analogues in Table 1 were the highest value in three trials. MICs in Supplementary Table 1 were determined in one trial.  Fig. 2 Results of biological evaluations of hydrazone library. a General structures of hydrazine fragment moiety are shown. Each hydrazine class are represented by different colours (green; BZ, cyan; PA, grey; AC, yellow; AA, orange; LA). b–h MraY inhibitory activity and antibacterial activity of the hydrazone library. The bar graphs show the relative enzyme activity with DMSO as 100% when the compound is treated at given concentration (b,c; TUN at 100 nM, d,e; MRY at 10 nM, f.g; MRD at 100 nM, h; CAP at 1000 nM. n = 1), with the lower bars indicating higher inhibitory activity. The colour of the bars corresponds to Fig. 2a. […] Data of control compounds (van: vancomycin, col: colistin) are shown left column in each panel. E. faecium ATCC 35667, S. aureus ATCC 29213, P. aeruginosa ATCC 27853, K. pneumoniae ATCC 13883, E. cloacae ATCC 13047, A. baumannii ATCC 19606, E. coli ATCC 25922.
# E. cloacae ATCC 13047 = tested on: T2, E. cloacae ATCC 13047; experiment: microbe, parasite or virus in culture; conditions: Enterobacter cloacae, ATCC13047
# T2 construct: ATCC 13047
# Experimental: as §1
# E. faecium ATCC 35667 = tested on: T3, E. faecium ATCC 35667; experiment: microbe, parasite or virus in culture; conditions: Enterococcus faecium, ATCC35667
# T3 construct: ATCC 35667
# Experimental: as §1
# P. aeruginosa ATCC 27853 = tested on: T4, P. aeruginosa ATCC 27853; experiment: microbe, parasite or virus in culture; conditions: Pseudomonas aeruginosa, ATCC27853
# T4 construct: ATCC 27853
# Experimental: as §1
# S. aureus ATCC 29213 = tested on: T5, S. aureus ATCC 29213; experiment: microbe, parasite or virus in culture; conditions: Staphylococcus aureus, ATCC29213
# T5 construct: ATCC 29213
# Experimental: as §1
# Enterococcus faecalis 26 = tested on: T6, Enterococcus faecalis 26; experiment: microbe, parasite or virus in culture; parameters: CLSI broth microdilution MIC in MHB-II; conditions: Enterococcus faecalis, 26, 18 h, read-out: MIC
# T6 construct: 26
# Experimental: (§2) MICs were determined by a microdilution broth method as recommended by the CLSI with MHB-II. For MICs of stable analogues, a 2-fold dilution of each compound was prepared in DMSO at 100-fold of the final concentration. The strains were inoculated with 5 × 10^5 cfu/mL in 96-well plates (each 100 μL/well), and 1 μL of DMSO solutions of the samples were added (contained less than 1% DMSO). The plates were incubated at 37 °C for 18 h and then MICs were determined. MICs of stable analogues in Table 1 were the highest value in three trials. MICs in Supplementary Table 1 were determined in one trial.
# Enterococcus faecalis 28 = tested on: T7, Enterococcus faecalis 28; experiment: microbe, parasite or virus in culture; parameters: CLSI broth microdilution MIC in MHB-II; conditions: Enterococcus faecalis, 28, 18 h, read-out: MIC
# T7 construct: 28
# Experimental: as §2
# Enterococcus faecalis 30 = tested on: T8, Enterococcus faecalis 30; experiment: microbe, parasite or virus in culture; parameters: CLSI broth microdilution MIC in MHB-II; conditions: Enterococcus faecalis, 30, 18 h, read-out: MIC
# T8 construct: 30
# Experimental: as §2
# Enterococcus faecium 11 = tested on: T9, Enterococcus faecium 11; experiment: microbe, parasite or virus in culture; parameters: CLSI broth microdilution MIC in MHB-II; conditions: Enterococcus faecium, 11, 18 h, read-out: MIC
# T9 construct: 11
# Experimental: as §2
# Enterococcus faecium 3 = experiment: microbe, parasite or virus in culture; parameters: CLSI broth microdilution MIC in MHB-II; conditions: Enterococcus faecium, 3, 18 h, read-out: MIC
# Experimental: as §2
# Enterococcus faecium 4 = experiment: microbe, parasite or virus in culture; parameters: CLSI broth microdilution MIC in MHB-II; conditions: Enterococcus faecium, 4, 18 h, read-out: MIC
# Experimental: as §2
# Enterococcus faecium 7 = experiment: microbe, parasite or virus in culture; parameters: CLSI broth microdilution MIC in MHB-II; conditions: Enterococcus faecium, 7, 18 h, read-out: MIC
# Experimental: as §2
# Enterococcus faecium 8 = experiment: microbe, parasite or virus in culture; parameters: CLSI broth microdilution MIC in MHB-II; conditions: Enterococcus faecium, 8, 18 h, read-out: MIC
# Experimental: as §2
# [1] = tested on: T10, Staphylococcus aureus #2071; experiment: microbe, parasite or virus in culture; parameters: CLSI broth microdilution MIC in MHB-II; conditions: Staphylococcus aureus, 18 h, read-out: MIC
# T10 construct: #2071
# Experimental: as §2
# [2] = tested on: T11, Staphylococcus aureus #2110; experiment: microbe, parasite or virus in culture; parameters: CLSI broth microdilution MIC in MHB-II; conditions: Staphylococcus aureus, 18 h, read-out: MIC
# T11 construct: #2110
# Experimental: as §2
# [3] = tested on: T12, Staphylococcus aureus #2334; experiment: microbe, parasite or virus in culture; parameters: CLSI broth microdilution MIC in MHB-II; conditions: Staphylococcus aureus, 18 h, read-out: MIC
# T12 construct: #2334
# Experimental: as §2
# MraYSA (S. aureus MraY) = MraYSA (S. aureus MraY) (Staphylococcus aureus, UniProt Q2FZ93); experiment: fluorescence assay of dansylated lipid I formation; type: biochemical
# Chain of MraYSA (S. aureus MraY) (Q2FZ93 whole entry): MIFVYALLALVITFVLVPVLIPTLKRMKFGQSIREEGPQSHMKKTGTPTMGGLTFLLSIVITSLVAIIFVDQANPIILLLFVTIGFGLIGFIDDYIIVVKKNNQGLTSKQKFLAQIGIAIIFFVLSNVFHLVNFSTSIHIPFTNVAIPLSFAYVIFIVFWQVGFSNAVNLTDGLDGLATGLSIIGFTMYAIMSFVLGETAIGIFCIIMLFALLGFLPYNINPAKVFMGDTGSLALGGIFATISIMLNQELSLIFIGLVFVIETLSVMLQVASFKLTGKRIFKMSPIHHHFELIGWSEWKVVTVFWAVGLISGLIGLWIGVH
# in vitro = experiment: in vitro; parameters: WST-8 cell viability assay in HepG2 cells; conditions: human, hepg2 cells; read-out: IC50
# Experimental: Cells were regularly passed to maintain exponential growth. HepG2 cells were sowed by 1.0 × 10^4 cells for each well in 96-well plate and cultured at 37 °C under 5% CO2 in air for 24 h. The cells were treated with a solution of test compounds in DMSO at various concentration and incubated at 37 °C under 5% CO2 in air for 24 h. After that, the WST-8 (Dojindo) cell proliferation assay was used. Cell viability was indicated as a percentage of the negative control (cells treated with DMSO only) and that value was fixed at 100%.
Structure (SMILES),MIC (A. baumannii ATCC 19606) [µM],MIC (E. cloacae ATCC 13047) [µM],MIC (E. faecium ATCC 35667) [µM],MIC (P. aeruginosa ATCC 27853) [µM],MIC (S. aureus ATCC 29213) [µM],MIC (Enterococcus faecalis 26) [µg/mL],MIC (Enterococcus faecalis 28) [µg/mL],MIC (Enterococcus faecalis 30) [µg/mL],MIC (Enterococcus faecium 11) [µg/mL],MIC (Enterococcus faecium 3) [µg/mL],MIC (Enterococcus faecium 4) [µg/mL],MIC (Enterococcus faecium 7) [µg/mL],MIC (Enterococcus faecium 8) [µg/mL],MIC [1] [µg/mL],MIC [2] [µg/mL],MIC [3] [µg/mL],IC50 (MraYSA (S. aureus MraY)) [µM],CC50 at 24 h (in vitro) [µM]
CC1(C)S[C@@H]2[C@H](NC(=O)[C@H](N)c3ccccc3)C(=O)N2[C@H]1C(=O)O [ampicillin],50,> 50,< 0.5,> 50,5,1,1,0.5,128,> 128,128,0.5,128,32,16,16,–,–
"CCCCCCCCCCCCCCCC(=O)N[C@@H](CCCCN)C(=O)NCc1cccc(CN[C@H](C(=O)O)[C@H](O[C@@H]2O[C@H](CN)[C@@H](O)[C@H]2O)[C@H]2O[C@@H](n3ccc(=O)[nH]c3=O)[C@H](O)[C@@H]2O)c1 [compound 2, analogue 2]",–,–,–,–,–,0.13,< 0.06,0.25,1,1,0.5,2,0.5,1,2,1,0.0059,16
"CCCCCCCCCCCCCCCC(=O)N[C@@H](CCCNC(=N)N)C(=O)NCc1ccc(CN[C@H](C(=O)O)[C@H](O[C@@H]2O[C@H](CN)[C@@H](O)[C@H]2O)[C@H]2O[C@@H](n3ccc(=O)[nH]c3=O)[C@H](O)[C@@H]2O)cc1 [compound 3, analogue 3]",–,–,–,–,–,0.13,< 0.06,0.25,1,1,0.5,1,0.5,–,2,1,0.004,18
"CCCCCCCCCCCCCCCC(=O)N[C@@H](CCCNC(=N)N)C(=O)NCc1cccc(CN[C@H](C(=O)O)[C@H](O[C@@H]2O[C@H](CN)[C@@H](O)[C@H]2O)[C@H]2O[C@@H](n3ccc(=O)[nH]c3=O)[C@H](O)[C@@H]2O)c1 [compound 4, analogue 4]",–,–,–,–,–,0.25,< 0.06,0.25,1,1,0.5,1,0.5,1,4,2,0.005,19
"CCCCCCCCCCCCCCCC(=O)N[C@@H](CCCCN)C(=O)Nc1ccc(CN[C@H](C(=O)O)[C@H](O[C@@H]2O[C@H](CN)[C@@H](O)[C@H]2O)[C@H]2O[C@@H](n3ccc(=O)[nH]c3=O)[C@H](O)[C@@H]2O)cc1 [compound 5, analogue 5]",–,–,–,–,–,0.13,< 0.06,0.13,0.5,0.5,0.25,0.5,0.25,0.5,1,1,0.0031,22
